From ChEMBL document CHEMBL6153096, “Development of Potent and Selective CK1α Molecular Glue Degraders” (J Med Chem, 2025) come the findings set out here.

The source made the active and inactive calls. The calls are words filed in the database; no cut-off is given here. A value given as a limit tells only on which side of the number the result lay.

The subject of one data set is Jurkat. Briefly: Induction of HiBiT-tagged WEE1 degradation in human Jurkat cells incubated for 5 hrs by Nano-Glo HiBiT assay relative to control. It counts as cell-based. On the technique in general: The HiBiT peptide binds its large partner to form an active luciferase.
The nature of data set [1]: Induction of HiBiT-tagged WEE1 degradation in human Jurkat cells incubated for 5 hrs by Nano-Glo HiBiT assay. It counts as cell-based.
For data set [2], the system named is MOLT-4. The data set can be described thus: Induction of WEE1 degradation in human MOLT-4 cells at 1 uM incubated for 5 hrs by quantitative mass spectrometry based proteomic analysis. The format is cell-based.
Data set [3] concerns the target T1, Cereblon/Casein kinase I alpha (Homo sapiens, UniProt P48729+Q96SW2). The data set can be described thus: Molecular glue activity at CRBN/HiBiT-tagged CK1-alpha in human Jurkat cells assessed as induction of CK1-alpha degradation incubated for 5 hrs by Nano-Glo HiBiT assay. It counts as cell-based.
Target sequence in this assay (P48729 whole entry): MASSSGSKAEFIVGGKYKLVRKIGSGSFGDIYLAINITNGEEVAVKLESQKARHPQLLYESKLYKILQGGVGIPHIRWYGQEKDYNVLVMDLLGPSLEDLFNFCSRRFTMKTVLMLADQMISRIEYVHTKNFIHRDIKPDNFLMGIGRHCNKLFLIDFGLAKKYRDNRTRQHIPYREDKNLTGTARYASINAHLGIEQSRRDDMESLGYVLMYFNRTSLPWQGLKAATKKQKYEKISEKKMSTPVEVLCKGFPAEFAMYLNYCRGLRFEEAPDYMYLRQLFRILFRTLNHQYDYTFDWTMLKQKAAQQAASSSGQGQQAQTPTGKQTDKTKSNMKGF
Target sequence in this assay (Q96SW2 whole entry): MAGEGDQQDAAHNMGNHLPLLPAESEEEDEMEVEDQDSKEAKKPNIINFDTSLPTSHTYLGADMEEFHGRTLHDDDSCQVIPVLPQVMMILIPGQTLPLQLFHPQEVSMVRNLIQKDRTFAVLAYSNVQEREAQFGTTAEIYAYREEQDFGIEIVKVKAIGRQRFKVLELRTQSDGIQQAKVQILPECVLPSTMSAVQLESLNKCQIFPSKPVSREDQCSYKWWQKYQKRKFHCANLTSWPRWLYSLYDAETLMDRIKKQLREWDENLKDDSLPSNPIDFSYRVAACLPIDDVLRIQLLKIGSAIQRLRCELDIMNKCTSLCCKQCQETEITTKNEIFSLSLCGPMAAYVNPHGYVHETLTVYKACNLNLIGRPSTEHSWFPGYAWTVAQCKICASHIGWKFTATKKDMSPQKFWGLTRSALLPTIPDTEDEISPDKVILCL
The test system of data set [4] is MOLT-4. The data set can be described thus: Induction of GSPT1 degradation in human MOLT-4 cells at 1 uM incubated for 5 hrs by quantitative mass spectrometry based proteomic analysis. The format is cell-based.
Data set [5] concerns the target T1, Cereblon/Casein kinase I alpha. Briefly: Molecular glue activity at CRBN/CK1-alpha in human MOLT-4 cells with CRBN-/- assessed as induction of CK1-alpha degradation at 1 uM incubated for 5 hrs by quantitative mass spectrometry based proteomic analysis. The format is cell-based.
Target sequence in this assay (P48729 2-337 limits assumed): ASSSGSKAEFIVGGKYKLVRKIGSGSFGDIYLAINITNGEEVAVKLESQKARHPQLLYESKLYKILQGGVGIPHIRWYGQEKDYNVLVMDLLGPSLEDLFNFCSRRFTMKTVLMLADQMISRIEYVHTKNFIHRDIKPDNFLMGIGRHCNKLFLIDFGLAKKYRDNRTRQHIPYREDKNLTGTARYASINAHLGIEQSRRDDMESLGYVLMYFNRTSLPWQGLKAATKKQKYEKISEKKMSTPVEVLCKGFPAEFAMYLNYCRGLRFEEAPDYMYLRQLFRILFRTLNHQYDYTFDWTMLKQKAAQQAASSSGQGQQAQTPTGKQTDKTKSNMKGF
Target sequence in this assay (Q96SW2 whole entry partner): as the sequence (Q96SW2 whole entry) above
Data set [6] addresses Zinc finger protein Helios (Homo sapiens) (UniProt Q9UKS7). The data set can be described thus: Induction of IKZF2 degradation in human MOLT-4 cells at 1 uM incubated for 5 hrs by quantitative mass spectrometry based proteomic analysis. The format is cell-based.
Data set [7] in a line: Metabolic stability in mouse liver microsomes assessed as intrinsic clearance. The format is ADME, Microsome. A general note: Liver microsomes are a subcellular fraction often used to study metabolism.
The test system of data set [8] is MOLM-14. Briefly: Antiproliferative activity against human MOLM-14 cells incubated for 72 hrs by CellTiter-Glo Luminescent Cell Viability Assay. It counts as functional, cell-based. In general terms: In ATP-based viability assays light output follows the ATP content of the culture.
The target in data set [9] is T1, Cereblon/Casein kinase I alpha. Briefly: Molecular glue activity at CRBN/CK1-alpha in human MOLM-14 cells assessed as increase in p53 level at 0.1 to 1 uM incubated for 24 hrs by Western blot analysis. It counts as cell-based. The following applies: dose 0.1-1 µM.
Target sequence in this assay (P48729 2-337 limits assumed): as the sequence (P48729 2-337 limits assumed) above
Target sequence in this assay (Q96SW2 whole entry partner): as the sequence (Q96SW2 whole entry) above
Data set [10] shares this target. The data set can be described thus: Molecular glue activity at CRBN/CK1-alpha in human MOLM-13 cells assessed as induction of CK1-alpha degradation at 1 uM incubated for 5 hrs by Western blot analysis. It counts as cell-based.
Target sequence in this assay (P48729 2-337 limits assumed): as the sequence (P48729 2-337 limits assumed) above
Target sequence in this assay (Q96SW2 whole entry partner): as the sequence (Q96SW2 whole entry) above
The test system of the next data set is MOLM-13. Briefly: Antiproliferative activity against human MOLM-13 cells incubated for 72 hrs by CellTiter-Glo Luminescent Cell Viability Assay. It counts as functional, cell-based. The following applies: MOLM-13, 72 h.
Data set [11] has as its system MOLM-14. Briefly: Antiproliferative activity against human MOLM-14 cells with CRBN-/- incubated for 72 hrs by CellTiter-Glo Luminescent Cell Viability Assay. The format is functional, cell-based.
Data set [12] addresses T1, Cereblon/Casein kinase I alpha. The data set can be described thus: Molecular glue activity at CRBN/CK1-alpha in human MOLM-14 cells assessed as induction of CK1-alpha degradation at 1 uM incubated for 5 hrs by Western blot analysis. The format is cell-based.
Target sequence in this assay (P48729 2-337 limits assumed): as the sequence (P48729 2-337 limits assumed) above
Target sequence in this assay (Q96SW2 whole entry partner): as the sequence (Q96SW2 whole entry) above
Data set [13] shares this target. The data set can be described thus: Molecular glue activity at CRBN/CK1-alpha in human MOLM-13 cells assessed as increase in p21 level at 0.1 to 1 uM incubated for 24 hrs by Western blot analysis. It counts as cell-based. The following applies: dose 0.1-1 µM.
Target sequence in this assay (P48729 2-337 limits assumed): as the sequence (P48729 2-337 limits assumed) above
Target sequence in this assay (Q96SW2 whole entry partner): as the sequence (Q96SW2 whole entry) above
A short description of data set [14]: Metabolic stability in mouse liver microsomes assessed as half life. It counts as ADME, Microsome. The following applies: microsomes.
In data set [15] the target is T1, Cereblon/Casein kinase I alpha. The data set can be described thus: Molecular glue activity at CRBN/CK1-alpha in human MOLM-13 cells assessed as increase in p53 level at 0.1 to 1 uM incubated for 24 hrs by Western blot analysis. The format is cell-based. The following applies: dose 0.1-1 µM.
Target sequence in this assay (P48729 2-337 limits assumed): as the sequence (P48729 2-337 limits assumed) above
Target sequence in this assay (Q96SW2 whole entry partner): as the sequence (Q96SW2 whole entry) above
Data set [16] has the same target. The data set can be described thus: Molecular glue activity at CRBN/CK1-alpha in human MOLT-4 cells assessed as induction of CK1-alpha degradation at 1 uM incubated for <3 hrs by Western blot analysis. The format is cell-based.
Data set [17] shares this target. The data set can be described thus: Molecular glue activity at CRBN/CK1-alpha in human MOLM-14 cells assessed as increase in MDM2 level at 0.1 to 1 uM incubated for 24 hrs by Western blot analysis. It counts as cell-based. The following applies: dose 0.1-1 µM.
The target is the same in data set [18]. The data set can be described thus: Molecular glue activity at CRBN/CK1-alpha in human MOLM-14 cells assessed as increase in p21 level at 0.1 to 1 uM incubated for 24 hrs by Western blot analysis. To be noted: dose 0.1-1 µM. The format is cell-based.
Data set [19] has the same target. The data set can be described thus: Molecular glue activity at CRBN/CK1-alpha in human MOLT-4 cells assessed as induction of CK1-alpha degradation at 100 uM incubated for 5 hrs by Western blot analysis. The format is cell-based.
Data set [20] has the same target. The data set can be described thus: Molecular glue activity at CRBN/CK1-alpha in human MOLM-13 cells assessed as increase in MDM2 level at 0.1 to 1 uM incubated for 24 hrs by Western blot analysis. To be noted: dose 0.1-1 µM. It counts as cell-based.
The nature of data set [21]: Metabolic stability in human liver microsomes assessed as intrinsic clearance. The format is ADME, Microsome.
Data set [22] is described as follows: Metabolic stability in human liver microsomes assessed as half life. It counts as ADME, Microsome.

Zinc finger protein Helios (Homo sapiens), sequence (Q9UKS7 whole entry): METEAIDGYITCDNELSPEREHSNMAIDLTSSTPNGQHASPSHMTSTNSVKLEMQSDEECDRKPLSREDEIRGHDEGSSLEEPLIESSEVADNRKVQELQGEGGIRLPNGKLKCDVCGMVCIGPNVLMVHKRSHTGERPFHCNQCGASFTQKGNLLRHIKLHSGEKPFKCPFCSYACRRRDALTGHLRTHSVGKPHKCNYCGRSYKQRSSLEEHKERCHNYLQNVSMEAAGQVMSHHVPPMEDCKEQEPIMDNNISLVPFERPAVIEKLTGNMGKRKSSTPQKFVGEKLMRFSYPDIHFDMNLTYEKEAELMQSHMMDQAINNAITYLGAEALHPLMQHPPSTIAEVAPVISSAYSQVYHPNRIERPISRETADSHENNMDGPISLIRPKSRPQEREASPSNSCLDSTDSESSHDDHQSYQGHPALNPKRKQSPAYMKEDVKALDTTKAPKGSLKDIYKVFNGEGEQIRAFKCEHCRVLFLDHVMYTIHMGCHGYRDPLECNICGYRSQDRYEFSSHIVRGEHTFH

Usually Emax stands for the size of the effect at its maximum, as opposed to the concentration needed. Usually DC50 stands for the midpoint of the concentration-degradation curve. With `O=C1CCC(N2Cc3cc(-c4cc5ccccc5cn4)ccc3C2=O)C(=O)N1` (stereo not given), the Emax in the data set on Jurkat worked out at 80%. In addition, the values for the DC50 in data set [1] and in [3] were 43000 nM and 10 nM, respectively. The outcome (in the data set with MOLT-4 [2]; in the data set with MOLT-4 [4]; in data set [6]) was Active. In addition, the Activity entry in data set [5] is “Not active; Compound Induced Ck1-Alpha Degradation In A Crbn Dependent Manner”.
The IC50 is the midpoint of a concentration-inhibition curve. A high value points to weaker potency. For `O=C1CCC(N2Cc3cc(NC(=O)c4cn5ccccc5n4)ccc3C2=O)C(=O)N1` (stereo not given), the CLH in data set [7] was 9 µL/min/mg; in [21] it was less than 6 µL/min/mg. Moreover, the result (with MOLM-14 [8]; in [9]; in data set [10]; in [12]; in data set [13]; in [15]) was Active. Further, the result in [16], in [17], in data set [18] and in data set [20] was Active. In the data set on MOLM-13, it took 41 nM to reach half-maximal inhibition (IC50). Further, the result with MOLM-14 [11] was inactive. Besides, the DC50 in data set [3] was determined as 5.7 nM. Further, the t1/2 in [14] was 1.26 h; in data set [22] it was greater than 2 h. The Activity entry in data set [19] is given as “Active; Induces Maximum Degradation”.
